In patent US20260356846A1, “STATIN DERIVATIVES AND METHODS OF USING THE SAME” (The General Hospital Corporation, priority 2023, published 2026):
Read-outs that look alike come from different tables or passages of the source.

Assays:
[1] = tested on: STMN2 (WT STMN2-NLuc SH-SY5Y cells); assay: STMN2 nanoluciferase assay in WT SH-SY5Y cells (Table A: WT TDP-32; Table B: WT HD Luciferase); type: cell-based, human; conditions: WT cell line
Experimental: (§1) Neuroblastoma cells (ATCC) were cultured in DMEM/F12 (Gibco) supplemented with 10% fetal-bovine serum (Omega) and 1% penicillin-streptomycin (Gibco) at 37 °C with 5% CO2. For knockdown experiments, cells were transfected with SMARTpool ON-TARGETplus siRNA or control siRNA pool (D001810-10) (GE Dharmacon) at a final concentration of 50 nM, for 96 h in two doses (0, 24 h), after complexing with Lipofectamin RNAiMAX (Invitrogen) in Opti-MEM (Gibco) for 10 min.
(§2) WT and TDP-mut (N352S) SH-SY5Y cells were edited using CRISPR-Cas9 to express Nanoluciferase at the C-terminus of both endogenous STMN2 alleles. A single guided RNA targeting STMN2 C-terminus was designed (Benchling webtool) and cloned into pSpCas9-2A-green fluorescent protein (GFP) plasmid (px458-Addgene) using the BbsI restriction site. The sequence for guided RNA targeting STMN2 was: […]. For the repair template, overlapping fragments of 800 bp STMN2 homology arms flanking Nanoluciferase (NLuc, Promega) were generated and ligated into pUC57 backbone. A 42 bp GS-linker was also included 5′ to NLuc to prevent steric hindrance of the reporter to the final STMN2 exon. Fragments were ligated using Gibson Assembly and nucleofected simultaneously with pSpCas9-2A-GFP-gRNA plasmid using the Amaxa Nucleofector (assay A-023). Forty-eight hours following electroporation, cells were collected, and GFP-positive cells sorted and single-cell seeded into 96-well plates using the SH800S Sony cell sorter. Individual clones were expanded and DNA was extracted for PCR amplification of the STMN2 Ex5 genomic locus using primers within NLuc and outside the STMN2 5′ homology arm to confirm presence of the insert. The entire STMN2 coding region and all exon-intron junctions (>500-bp length of each intronic region) were then sequenced to verify the absence of any additional DNA alteration. qPCR analysis was performed with a wild-type isogenic SH-SY5Y cell line that had undergone the mutagenesis attempt but not acquired the insertion mutation during the original screening process.
(§3) TDP-mut STMN2-NLuc SH-SY5Y cells were used in small-molecule screening at ICCB-Longwood. 3000 cells/well were plated in white 384-well plates using a 50 ul sample volume. 24 hours after plating, compounds were added using 100 nl pin transfer. 24 hours later, 25 ul NLuc assay was added to each well according to manufacturer instructions (Promega, Cat #). Plates were shaken for 1 min prior to luminescence readings using EnVision2 machine. DMSO-only and WT STMN2-NLuc cells were included as negative and positive controls respectively on each plate, producing an average Z′score of ~0.7 across the screen. Each library plate was conducted in duplicate, and Z-scores calculated for each compound. For subsequent validation experiments, cell numbers in each well were quantified by hoescht staining at 1 μg/ml for 15 mins at 37C in black, clear bottom plates, prior to imaging at 4× using automated microscopy (ImageXpressMicro). Nuclei were then counted using a custom algorithm, and luciferase assay run as above. Luminescence results were then normalised against cell counts as RLU/cell.
(§4) Each compound was tested in triplicate in log doses ranging 0.01 μM−10 μM. The values are represented in luminescence normalized to the number of cells in the well, wherein darker grey correlates to higher RLU per cell and higher STMN2 protein expression.

[2] = tested on: STMN2 (TDP-mut (N352S) STMN2-NLuc SH-SY5Y cells); assay: STMN2 nanoluciferase assay in TDP-43 mutant SH-SY5Y cells (Table A: mut TDP-43; Table B: mut HD Luciferase); type: cell-based, human; conditions: mutant TDP-43 cell line
Experimental: as §1, §2, §3, §4

[3] = Homo sapiens, SH-SY5Y, Table B, read-out: EC50, WT HD Luciferase
[4] = Homo sapiens, SH-SY5Y, Table B, read-out: EC50, mut HD Luciferase
[5] = Homo sapiens, SH-SY5Y, Table B, Emax
[6] = Table B, read-out: EC50, WT HD Luciferase
[7] = Table B, read-out: EC50, mut HD Luciferase
[8] = Homo sapiens, SH-SY5Y, Table A, read-out: EC50, WT TDP-32
[9] = Homo sapiens, SH-SY5Y, Table A, read-out: EC50, mut TDP-43

EC50 [1, 3] [nM]	EC50 [2, 4] [nM]	EC50 [1, 6] [nM]	EC50 [2, 7] [nM]	EC50 [1, 8] [nM]	EC50 [2, 9] [nM]	HD Luciferase (WT, Emax) ([1]; Table B, Emax)	SMILES	maximal fold induction [1, 5]	HD Luciferase (mut, Emax) ([2]; Table B)
10 to 50	10 to 50	–	–	–	–	–	COCc1c(C2CCC2)nc(C2CCC2)c(/C=C/[C@@H](O)C[C@@H](O)CC(=O)O)c1-c1ccc(F)cc1 [II-6, (3R,5S,E)-7-(2,6-dicyclobutyl-4-(4-fluorophenyl)-5-(methoxymethyl)pyridin-3-yl)-3,5-dihydroxyhept-6-enoic acid]	–	–
10 to 50	10 to 50	–	–	–	–	–	COCc1c(C2CC2)nc(C2CC2)c(/C=C/[C@@H](O)C[C@@H](O)CC(=O)O)c1-c1cc(F)ccc1Cl [II-13, (3R,5S,E)-7-(4-(2-chloro-5-fluorophenyl)-2,6-dicyclopropyl-5-(methoxymethyl)pyridin-3-yl)-3,5-dihydroxyhept-6-enoic acid]	–	–
10 to 50	10 to 50	–	–	–	–	–	Cc1cc(F)ccc1-c1c(/C=C/[C@@H](O)C[C@@H](O)CC(=O)O)c(C2CC2)nc2c(C)csc12 [Example I-13, (3R,5S,E)-7-(5-cyclopropyl-7-(4-fluoro-2-methylphenyl)-3-methylthieno[3,2-b]pyridin-6-yl)-3,5-dihydroxyhept-6-enoic acid]	–	–
10 to 50	10 to 50	–	–	–	–	–	O=C(O)C[C@H](O)C[C@H](O)/C=C/c1c(C2CC2)nc2c(C3CC3)csc2c1-c1ccc(F)cc1 [Example I-25, (3R,5S,E)-7-(3,5-dicyclopropyl-7-(4-fluorophenyl)thieno[3,2-b]pyridin-6-yl)-3,5-dihydroxyhept-6-enoic acid]	1.5 to 1.75	–
–	–	≥ 500	≥ 500	–	–	–	Cc1cc2c(-c3ccc(F)cc3)c(/C=C/[C@@H](O)C[C@@H](O)CC(=O)O)c(C3CC3)nc2s1 [Example I-5a, (3R,5S,E)-7-(6-cyclopropyl-4-(4-fluorophenyl)-2-methylthieno[2,3-b]pyridin-5-yl)-3,5-dihydroxyhept-6-enoic acid]	1 to 1.25	* (means≥1 and <1.25)
–	–	–	–	500 to 1000	500 to 1000	–	O=C(O)C[C@H](O)C[C@H](O)/C=C/c1c(C2CC2)nc2ccccc2c1-c1ccc(F)cc1 [Pitavastatin, pitavastatin, reference compound]	–	–
≤ 10	≤ 10	–	–	–	–	–	COCc1c(C2CC2)nc(C2CC2)c(/C=C/[C@@H](O)C[C@@H](O)CC(=O)O)c1-c1c(F)cc(F)cc1Cl [II-21, (3R,5S,E)-7-(4-(2-chloro-4,6-difluorophenyl)-2,6-dicyclopropyl-5-(methoxymethyl)pyridin-3-yl)-3,5-dihydroxyhept-6-enoic acid]	1.5 to 1.75	–
100 to 500	100 to 500	–	–	1000 to 5000	1000 to 5000	–	Cc1nc2c(-c3ccc(F)cc3)c(/C=C/[C@@H](O)C[C@@H](O)CC(=O)O)c(C3CC3)cc2s1 [Example I-7, (3R,5S,E)-7-(6-cyclopropyl-4-(4-fluorophenyl)-2-methylbenzo[d]thiazol-5-yl)-3,5-dihydroxyhept-6-enoic acid]	1 to 1.25	** (means≥1.25 and <1.5)
≥ 500	≥ 500	–	–	≥ 10000	5000 to 10000	–	Cc1nc2c(-c3ccc(F)cc3)c(/C=C/[C@@H](O)C[C@@H](O)CC(=O)O)c(C3CC3)nc2s1 [Example I-3, (3R,5S,E)-7-(5-cyclopropyl-7-(4-fluorophenyl)-2-methylthiazolo[5,4-b]pyridin-6-yl)-3,5-dihydroxyhept-6-enoic acid]	1 to 1.25	* (means≥1 and <1.25)
–	–	–	–	100 to 500	≤ 100	–	COCc1c(C(C)C)nc(C(C)C)c(/C=C/[C@@H](O)C[C@@H](O)CC(=O)O)c1-c1ccc(F)cc1 [Cerivastatin, cerivastatin, reference compound]	–	–
10 to 50	10 to 50	–	–	100 to 500	100 to 500	–	O=C(O)C[C@H](O)C[C@H](O)/C=C/c1c(-c2ccc(F)cc2Cl)cc(C2CC2)nc1C1CC1 [II-8, (3R,5S,E)-7-(4-(2-chloro-4-fluorophenyl)-2,6-dicyclopropylpyridin-3-yl)-3,5-dihydroxyhept-6-enoic acid]	–	–
–	–	100 to 500	100 to 500	–	–	** (means≥1.25 and <1.5)	Cc1cc2c(-c3ccc(F)cc3)c(/C=C/[C@@H](O)C[C@@H](O)CC(=O)O)c(C3CC3)nc2s1 [Example I-5c, (3R,5S,E)-7-(6-cyclopropyl-4-(4-fluorophenyl)-2-methylthieno[2,3-b]pyridin-5-yl)-3,5-dihydroxyhept-6-enoic acid]	–	–
10 to 50	10 to 50	–	–	–	–	–	COCc1c(C2CC2)nc(C2CC2)c(/C=C/[C@@H](O)C[C@@H](O)CC(=O)O)c1-c1cc(F)ccc1C [II-24, (3R,5S,E)-7-(2,6-dicyclopropyl-4-(5-fluoro-2-methylphenyl)-5-(methoxymethyl)pyridin-3-yl)-3,5-dihydroxyhept-6-enoic acid]	1.25 to 1.5	** (means≥1.25 and <1.5)
10 to 50	10 to 50	–	–	100 to 500	100 to 500	–	Cc1nc2cc(C3CC3)c(/C=C/[C@@H](O)C[C@@H](O)CC(=O)O)c(-c3ccc(F)cc3)c2s1 [Example I-8, (3R,5S,E)-7-(5-cyclopropyl-7-(4-fluorophenyl)-2-methylbenzo[d]thiazol-6-yl)-3,5-dihydroxyhept-6-enoic acid]	1.25 to 1.5	–
10 to 50	10 to 50	–	–	100 to 500	100 to 500	–	COCc1c(C23CC(C2)C3)nc(C2CC2)c(/C=C/[C@@H](O)C[C@@H](O)CC(=O)O)c1-c1ccc(F)cc1Cl [II-1, (3R,5S,E)-7-(6-(bicyclo[1.1.1]pentan-1-yl)-4-(2-chloro-4-fluorophenyl)-2-cyclopropyl-5-(methoxymethyl)pyridin-3-yl)-3,5-dihydroxyhept-6-enoic acid]	–	**** (means≥1.5 and <1.75)
10 to 50	10 to 50	–	–	–	–	–	COCc1c(C2CC2)nc(C2CC2)c(/C=C/[C@@H](O)C[C@@H](O)CC(=O)O)c1-c1cc(Cl)ccc1F [II-20, (3R,5S,E)-7-(4-(5-chloro-2-fluorophenyl)-2,6-dicyclopropyl-5-(methoxymethyl)pyridin-3-yl)-3,5-dihydroxyhept-6-enoic acid]	1.25 to 1.5	–
≥ 500	≥ 500	–	–	–	–	–	Cc1csc2c(-c3ccc(F)cc3)c(/C=C/[C@@H](O)C[C@@H](O)CC(=O)N(C)C)c(C3CC3)nc12 [Example I-26, (3R,5S,E)-7-(5-cyclopropyl-7-(4-fluorophenyl)-3-methylthieno[3,2-b]pyridin-6-yl)-3,5-dihydroxy-N,N-dimethylhept-6-enamide]	1 to 1.25	* (means≥1 and <1.25)
≥ 500	≥ 500	–	–	–	–	–	O=C(O)C[C@H](O)C[C@H](O)/C=C/c1c(C2CC2)nc2scnc2c1-c1ccc(F)cc1 [Example I-2, (3R,5S,E)-7-(5-cyclopropyl-7-(4-fluorophenyl)thiazolo[5,4-b]pyridin-6-yl)-3,5-dihydroxyhept-6-enoic acid]	1 to 1.25	* (means≥1 and <1.25)
≤ 10	≤ 10	–	–	–	–	–	Cc1cc(F)ccc1-c1cc(C2CC2)nc(C2CC2)c1/C=C/[C@@H](O)C[C@@H](O)CC(=O)O [II-12, (3R,5S,E)-7-(2,6-dicyclopropyl-4-(4-fluoro-2-methylphenyl)pyridin-3-yl)-3,5-dihydroxyhept-6-enoic acid]	–	–
